From paper PMC9995496, “A screen for MeCP2-TBL1 interaction inhibitors using a luminescence-based assay” (Scientific Reports, 2023)
Structures can show the parent of a compound that is named as a salt. Where two headings read alike, the source gives them in different places. Peptide text beside a SMILES is read from it.

Test system: PRKACA-PRKAR2A interaction (SmBiT-PRKACA / LgBiT-PRKAR2A), protein kinase A
Set-up: NanoLuc complementation counter-screen in cell extract, PRKACA with PRKAR2A, loss of luminescence, detects NanoLuc interference
Conditions: 0.5 h, 20 µM, inhibitor
[1] = counter-screen for NanoLuc interference
[2] = counter-screen for NanoLuc interference, Inh (PKA)

SMILES | Inh (PKA) [1] [%] | also measured
COc1c2occc2cc2ccc(=O)oc12 [UM0134068:02, 8-Methoxypsoralen] | 2.167 | 
CN1C(C(=O)Nc2ccccn2)=C(O)c2ccccc2S1(=O)=O [UM0134086:02, Piroxicam] | 4.329 | 
Cc1ccc(C(=O)Cn2c3c(sc2=N)CCCC3)cc1 [UM0134099:02, Pifithrin-?] | 9.08 | 
Cc1nc2n(c(=O)c1CCN1CCC(c3noc4cc(F)ccc34)CC1)CCCC2 [UM0134126:02, Risperidone] | 4.965 | 
Clc1cccc(Cl)c1NC1=NCCN1 [UM0134172:02, Clonidine HCl] | 1.329 | 
c1ccc(CN(CC2=NCCN2)c2ccccc2)cc1 [UM0134174:02, Antazoline HCl] | 0.9494 | 
O=C1CN(/N=C/c2ccc(-c3ccc([N+](=O)[O-])cc3)o2)C(=O)N1 [UM0134180:02, Dantrolene, sodium salt] | 25.72 | 
O=C(NCCN1CCOCC1)c1ccc(Cl)cc1 [UM0134186:02, Moclobemide (Ro 111163)] | 0.401 | 
C[C@H]1O[C@@H](O[C@H]2[C@@H](O)C[C@H](O[C@H]3[C@@H](O)C[C@H](O[C@H]4CC[C@@]5(C)[C@H](CC[C@@H]6[C@@H]5C[C@@H](O)[C@]5(C)[C@@H](C7=CC(=O)OC7)CC[C@]65O)C4)O[C@@H]3C)O[C@@H]2C)C[C@H](O)[C@@H]1O [UM0134205:02, Digoxin] | -2.961 | 
C[C@@H]1O[C@@H](O[C@H]2C[C@@H](O)[C@]3(CO)[C@H]4[C@H](O)C[C@]5(C)[C@@H](C6=CC(=O)OC6)CC[C@]5(O)[C@@H]4CC[C@]3(O)C2)[C@H](O)[C@H](O)[C@H]1O [UM0134215:02, Ouabain] | 0.8032 | 
CCC1=C(C)CN(C(=O)NCCc2ccc(S(=O)(=O)NC(=O)N[C@H]3CC[C@H](C)CC3)cc2)C1=O [UM0134252:02, Glimepiride] | 4.382 | 
CC1(C)[C@@H](OC(=O)CCC(=O)O)CC[C@]2(C)[C@H]3C(=O)C=C4[C@@H]5C[C@@](C)(C(=O)O)CC[C@]5(C)CC[C@@]4(C)[C@]3(C)CC[C@@H]12 [UM0134288:02, Carbenoxolone disodium] | 9.677 | 
C#C[C@]1(OC(C)=O)CC[C@H]2[C@@H]3CCC4=C[C@@H](OC(C)=O)CC[C@@H]4[C@H]3CC[C@@]21C [UM0134301:02, Ethynodiol diacetate] | 16.1 | 
O=C(O)/C=C/c1ccc(Cn2ccnc2)cc1 [UM0134313:02, Ozagrel HCl] |  | Inh (PKA) [2]: -0.66%
CC1=C(CC(=O)O)c2cc(F)ccc2/C1=C\c1ccc([S+](C)[O-])cc1 (stereo not drawn) [UM0134349:02, Sulindac] | 3.185 | 
CN(C)c1ccc(/C=C2\C(=O)Nc3ccccc32)cc1 [UM0134350:02, SU 4312] | 71.43 | 
COC[C@H]1OC(=O)c2coc3c2[C@@]1(C)C1=C(C3=O)[C@@H]2CCC(=O)[C@@]2(C)C[C@H]1OC(C)=O [UM0134355:02, Wortmannin] | 31.91 | 
COc1ccc(/C=C/C(=O)Nc2ccccc2C(=O)O)cc1OC [UM0134356:02, Tranilast] | 18.34 | 
COc1ccccc1N1CCN(CCN(C(=O)C2CCCCC2)c2ccccn2)CC1 [UM0134420:02, WAY-100635 maleate salt] | 1.248 | 

SMILES | Inh (PKA) [1] [%] | also measured
Cc1cccc(C)c1NC1=NCCCS1 [UM0134421:02, Xylazine HCl] |  | Inh (PKA): 1.103%
C=CCn1c(=O)c2cnc(Nc3ccc(N4CCN(C)CC4)cc3)nc2n1-c1cccc(C(C)(C)O)n1 [UM0135452:02, MK-1775] | 7.841 | 
CS(=O)(=O)c1ccc(-c2cnc(N)c(C(=O)Nc3ccccc3)n2)cc1 [UM0135461:02, VE-821] | 11.31 | 
CNCc1ccc(-c2cc(-c3nc(-c4ccc(S(=O)(=O)C(C)C)cc4)cnc3N)on2)cc1 [UM0135462:02, VE-822] | 14.15 | 
O=c1cc(N2CCOCC2)oc2c(-c3cccc4c3sc3ccccc34)cccc12 [UM0135467:02, NU7441 (KU-57788)] | 24.55 | 
CC(C)(C#N)c1ccc(N2C(=O)OCc3cnc4ccc(-c5cnc6ccccc6c5)cc4c32)cc1 [UM0135469:02, ETP-46464] | 11.28 | 
CNCc1ccc(-c2[nH]c3cc(F)cc4c3c2CCNC4=O)cc1 [UM0135471:02, Rucaparib (AG-014699,PF-01367338)] |  | Inh (PKA) [2]: 3.125%
O=C(c1cc(Cc2n[nH]c(=O)c3ccccc23)ccc1F)N1CCN(C(=O)C2CC2)CC1 [UM0135473:02, Olaparib (AZD2281, Ku-0059436)] | 2.339 | 
CC(C)C[C@H](NC(=O)[C@H](Cc1ccccc1)NC(=O)c1cnccn1)B(O)O [UM0135483:03, Bortezomib (PS-341)] | 1.59 | 
CO[C@H]1C[C@@H]2CC[C@@H](C)[C@@](O)(O2)C(=O)C(=O)N2CCCC[C@H]2C(=O)O[C@H]([C@H](C)C[C@@H]2CC[C@@H](OC(=O)C(C)(CO)CO)[C@H](OC)C2)CC(=O)[C@H](C)/C=C(\C)[C@@H](O)[C@@H](OC)C(=O)[C@H](C)C[C@H](C)/C=C/C=C/C=C/1C [UM0135484:03, Temsirolimus] | 1.626 | 
Cn1cncc1[C@@](N)(c1ccc(Cl)cc1)c1ccc2c(c1)c(-c1cccc(Cl)c1)cc(=O)n2C [UM0135485:03, Tipifarnib (Zarnestra)] | 47.09 | 
COc1cc(Nc2ncc3c(n2)-c2ccc(Cl)cc2C(c2c(F)cccc2OC)=NC3)ccc1C(=O)O [UM0135487:02, MLN8237 (Alisertib)] | 50.43 | 
CS(=O)(=O)c1ccc(C(=O)Nc2ccc(Cl)c(-c3ccccn3)c2)c(Cl)c1 [UM0135488:02, GDC-0449 (Vismodegib)] | 8.773 | 
CC1(C)CCC(CN2CCN(c3ccc(C(=O)NS(=O)(=O)c4ccc(NCC5CCOCC5)c([N+](=O)[O-])c4)c(Oc4cnc5[nH]ccc5c4)c3)CC2)=C(c2ccc(Cl)cc2)C1 [UM0135497:03, ABT-199] | 28.89 | 
S=c1[nH]cnc2nc[nH]c12 [UM0135507:02, Mercaptopurine (6-MP)] | 1.981 | 
Cn1nnc2c(C(N)=O)ncn2c1=O [UM0135509:03, Temozolomide] | 1.163 | 
Cc1[nH]c2ccccc2c1CCNCc1ccc(/C=C/C(=O)NO)cc1 [UM0135511:02, Panobinostat (LBH589)] | 3.589 | 
CN(C)CC[C@H](CSc1ccccc1)Nc1ccc(S(=O)(=O)NC(=O)c2ccc(N3CCN(Cc4ccccc4-c4ccc(Cl)cc4)CC3)cc2)cc1[N+](=O)[O-] [UM0136062:02, ABT-737] | 17.72 | 
Cc1cnc(Nc2ccc(OCCN3CCCC3)cc2)nc1Nc1cccc(S(=O)(=O)NC(C)(C)C)c1 [UM0136753:02, TG101348 (SAR302503)] | 24.97 | 

SMILES | Inh (PKA) [1] [%] | also measured
Cc1cc(Nc2nc(N[C@@H](C)c3ncc(F)cn3)ncc2Cl)[nH]n1 [UM0136754:02, AZD1480] | 15.63 | 
N#CCNC(=O)c1ccc(-c2ccnc(Nc3ccc(N4CCOCC4)cc3)n2)cc1 [UM0136756:02, CYT387] | 3.804 | 
C/C(=C\C(=O)Nc1ccccc1C(=O)O)c1ccc2ccccc2c1 [UM0138522:02, BIBR 1532] | 77.2 | 
CC1(COc2ccc3c(c2)ncn3-c2ccc3cccc(N4CCC(N)CC4)c3n2)COC1 [UM0139425:02, Crenolanib (CP-868596)] | 13.43 | 
CCCCc1nc2cc(/C=C/C(=O)NO)ccc2n1CCN(CC)CC [UM0139427:02, Pracinostat (SB939)] | 1.482 | 
Cc1sc2c(c1C)C(c1ccc(Cl)cc1)=N[C@@H](CC(=O)Nc1ccc(O)cc1)c1nnc(C)n1-2 [UM0139428:02, OTX-015] |  | Inh (PKA): 7.269
O=C1[C@H](Cc2ccc(O)cc2)N2C(=O)CCN(C(=O)NCc3ccccc3)[C@H]2CN1Cc1cccc2ccccc12 [UM0139430:02, ICG 001] | 13.98 | 
N#Cc1ccnc(N2C(=O)CC[C@H]2C(=O)N(c2cncc(F)c2)[C@H](C(=O)NC2CC(F)(F)C2)c2ccccc2Cl)c1 [UM0139433:02, AG-120] | 2.094 | 
CC(C)(O)CNc1nc(Nc2ccnc(C(F)(F)F)c2)nc(-c2cccc(C(F)(F)F)n2)n1 [UM0139434:02, AG-221 (Enasidenib)] |  | Inh (PKA): 31.79
CCOC(=O)c1sc(NC(=O)c2ccco2)c(SC#N)c1C [UM0139891:02, CBR-5884] | 28.46 | 
NC(=O)Nc1cc(-c2cccc(F)c2)sc1C(=O)N[C@H]1CCCNC1 [UM0139975:02, AZD7762] | 35.89 | 
C=CC(=O)N1C/C(=C\c2ccc([N+](=O)[O-])cc2)C(=O)/C(=C/c2ccc([N+](=O)[O-])cc2)C1 [UM0139980:02, NSC 687852 (b-AP15)] | 14.65 | 
O=C(O)O [UM0141172:02, Lithium carbonate] | -3.585 | 
NCC(=O)NCC(=O)N[C@@H](Cc1ccc(O)cc1)C(=O)N[C@@H](CCCN=C(N)N)C(=O)O [UM0141375:01, Papain Inhibitor] (H-GGYR-OH) | 1.556 | 
Cn1cc(-c2ccc3nnc(Sc4ccc5ncccc5c4)n3n2)cn1 [UM0141386:01, SGX-523] | 2.769 | 
CCCCCCCCCC(=O)N[C@@H](Cc1c[nH]c2ccccc12)C(=O)N[C@H](CC(N)=O)C(=O)N[C@@H](CC(=O)O)C(=O)N[C@@H]1C(=O)NCC(=O)N[C@@H](CCCN)C(=O)N[C@@H](CC(=O)O)C(=O)N[C@H](C)C(=O)N[C@@H](CC(=O)O)C(=O)NCC(=O)N[C@H](CO)C(=O)N[C@@H]([C@H](C)CC(=O)O)C(=O)N[C@@H](CC(=O)c2ccccc2N)C(=O)O[C@@H]1C [UM0141387:01, Daptomycin] | 0.4906 | 
C=C1C[C@@H]2[C@H](CC[C@]3(C)C(=O)CC[C@@H]23)[C@@]2(C)C=CC(=O)C=C12 [UM0141388:01, Exemestane] | 1.515 | 
CCc1cc(Nc2nccc(-c3c(-c4ccc(OC)c(C(=O)Nc5c(F)cccc5F)c4)nc4ccccn34)n2)c(OC)cc1N1CCC(N2CCN(S(C)(=O)=O)CC2)CC1 [UM0141389:01, GSK1904529A] | 3.167 | 
N#Cc1ccc(C(c2ccc(C#N)cc2)n2cncn2)cc1 [UM0141390:01, Letrozole] | 1.331 | 
